Where two headings read alike, the source gives them in different places.
Tests used:
in vitro [1] = assay: in vitro; set-up: species or system HB2, HEK293; details: human, ccd841 cells
OTUB2 (OTUB2A) = target: T1, OTUB2 (OTUB2A) (Homo sapiens, UniProt Q96DC9); set-up: Intact protein LC/MS covalent labelling, fragments in pools of five, 200 uM each, 4 °C; details: 24 h, 4 °C, pool of five; 200 µM; covalent
T1 construct: full length residues 1-234, E. coli BL21(DE3)-R3, His tag removed by TEV, construct 27312 Da
T1 sequence (Q96DC9 1-234): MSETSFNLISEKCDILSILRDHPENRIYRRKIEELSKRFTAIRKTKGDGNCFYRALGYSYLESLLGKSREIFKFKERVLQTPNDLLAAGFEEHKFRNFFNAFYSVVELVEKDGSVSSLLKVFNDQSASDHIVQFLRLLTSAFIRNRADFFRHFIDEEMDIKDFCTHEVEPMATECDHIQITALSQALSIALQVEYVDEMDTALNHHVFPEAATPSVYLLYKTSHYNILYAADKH

BSA = target: T2, BSA (Bos taurus, UniProt P02769); set-up: Intact protein LC/MS covalent labelling, fragments in pools of five, 200 uM each, 4 °C; details: 24 h, 4 °C, pool of five; 200 µM; covalent
T2 construct: gene ALB
T2 sequence (P02769 whole entry, the tested form may be a part): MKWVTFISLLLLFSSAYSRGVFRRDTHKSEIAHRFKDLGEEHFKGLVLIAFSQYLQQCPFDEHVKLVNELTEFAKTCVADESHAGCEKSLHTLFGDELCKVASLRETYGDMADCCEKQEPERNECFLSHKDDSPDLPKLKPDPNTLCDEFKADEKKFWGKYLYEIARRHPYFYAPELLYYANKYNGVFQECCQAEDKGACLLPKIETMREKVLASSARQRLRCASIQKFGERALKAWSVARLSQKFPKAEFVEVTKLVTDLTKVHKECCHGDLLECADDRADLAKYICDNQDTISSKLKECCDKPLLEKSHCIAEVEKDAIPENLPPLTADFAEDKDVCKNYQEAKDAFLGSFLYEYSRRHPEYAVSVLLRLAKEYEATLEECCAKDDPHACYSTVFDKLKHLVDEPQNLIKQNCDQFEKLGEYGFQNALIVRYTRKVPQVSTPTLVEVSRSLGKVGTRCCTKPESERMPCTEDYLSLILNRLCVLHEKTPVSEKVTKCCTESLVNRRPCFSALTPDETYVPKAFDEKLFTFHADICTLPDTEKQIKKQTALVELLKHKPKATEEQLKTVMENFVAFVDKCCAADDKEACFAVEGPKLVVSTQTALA

NUDT7 = target: T3, NUDT7 (Homo sapiens, UniProt P0C024); set-up: Intact protein LC/MS covalent labelling, fragments in pools of five, 200 uM each, 4 °C; details: 24 h, 4 °C, pool of five; 200 µM; covalent
T3 construct: residues 14-235, E. coli, pNIC28-Bsa4, N-terminal His6 tag removed by TEV, construct 26672 Da
T3 sequence (P0C024 14-235): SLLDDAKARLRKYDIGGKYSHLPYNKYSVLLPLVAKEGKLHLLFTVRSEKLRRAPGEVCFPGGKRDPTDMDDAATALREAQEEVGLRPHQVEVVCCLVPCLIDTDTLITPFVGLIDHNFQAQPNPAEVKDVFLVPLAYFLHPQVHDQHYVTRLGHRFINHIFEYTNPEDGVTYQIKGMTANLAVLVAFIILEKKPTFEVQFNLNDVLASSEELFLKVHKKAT

PCAF = target: T4, PCAF (Homo sapiens, UniProt Q92831); set-up: Intact protein LC/MS covalent labelling, fragments in pools of five, 200 uM each, 4 °C; details: 24 h, 4 °C, pool of five; 200 µM; covalent
T4 construct: gene KAT2B
T4 sequence (Q92831 whole entry, the tested form may be a part): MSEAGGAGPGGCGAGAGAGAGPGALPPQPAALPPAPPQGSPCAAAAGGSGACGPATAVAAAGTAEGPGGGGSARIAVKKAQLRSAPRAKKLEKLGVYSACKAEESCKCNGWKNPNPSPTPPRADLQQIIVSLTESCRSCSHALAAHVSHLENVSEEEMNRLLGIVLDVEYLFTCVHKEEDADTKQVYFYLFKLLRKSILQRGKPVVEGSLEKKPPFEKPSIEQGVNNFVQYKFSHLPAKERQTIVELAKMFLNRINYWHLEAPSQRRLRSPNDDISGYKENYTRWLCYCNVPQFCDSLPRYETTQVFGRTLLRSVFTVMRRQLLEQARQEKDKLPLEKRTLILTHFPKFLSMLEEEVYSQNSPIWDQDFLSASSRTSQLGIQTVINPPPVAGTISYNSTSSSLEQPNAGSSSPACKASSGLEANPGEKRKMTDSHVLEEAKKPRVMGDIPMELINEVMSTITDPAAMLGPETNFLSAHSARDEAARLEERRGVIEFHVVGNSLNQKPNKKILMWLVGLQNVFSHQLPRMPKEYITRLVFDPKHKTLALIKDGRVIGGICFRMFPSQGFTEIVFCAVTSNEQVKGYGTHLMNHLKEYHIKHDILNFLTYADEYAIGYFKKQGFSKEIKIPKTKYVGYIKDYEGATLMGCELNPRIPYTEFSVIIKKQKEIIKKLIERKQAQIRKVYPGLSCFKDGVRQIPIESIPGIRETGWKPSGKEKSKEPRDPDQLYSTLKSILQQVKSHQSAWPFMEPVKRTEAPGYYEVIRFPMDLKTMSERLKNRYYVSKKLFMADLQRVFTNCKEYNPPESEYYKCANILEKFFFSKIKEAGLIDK

in vitro [2] = assay: in vitro; set-up: species or system HB2, CCD841; details: human, hek293 cells
in vitro [3] = assay: in vitro; set-up: species or system CCD841, HEK293; details: human, hb2 cells, read-out: HB-2 Cells Viability (%)

Row | Structure (SMILES) | OTUB2 (OTUB2 (OTUB2A)) | BSA (BSA) | NUDT7 (NUDT7) | PCAF (PCAF) | viability at 48 h, 10 µM (in vitro [1]) [%] | viability at 48 h, 10 µM (in vitro [2]) [%] | viability at 48 h, 10 µM (in vitro [3]) [%]
1 | COc1ccccc1N1CCN(C(=O)CCl)CC1.Cl [PCM-0102173] | 0 | 0 | 0 | 0 | 76.9 | 58.2 | 44.1
2 | C=CC(=O)NCC1=CCCOC1 [PCM-0102448] | 0 | 0 | 0.05 | 0 | 104 | 79.4 | 102
3 | Cc1ccc(NC(=O)CCl)cc1 [PCM-0102320] | 0.24 | 0 | 0 | 0 | 63.2 | 8.7 | 29.1
4 | C=CC(=O)Nc1ccc(Cl)cc1 [PCM-0102537] | 0 | 0 | 0.12 | 0 | 89.3 | 81.5 | 95.5
5 | CN(Cc1ccccc1Br)C(=O)CCl [PCM-0102592] | 0.12 | 0 | 0.14 | 0 | 71.9 | 39 | 27.4
6 | O=C(CCl)Nc1ccc([N+](=O)[O-])cc1Cl [PCM-0102392] | 0.21 | 0 | 0.16 | 0 | 53.9 | 43.8 | 43.5
7 | CC(NC(=O)CCl)c1ccc(Cl)c(Cl)c1 (stereo not drawn) [PCM-0102096] | 0.26 | 0 | 0.51 | 0 | 58.1 | 21.3 | 28.9
8 | Cl.O=C(CCl)N1CCN(c2ncccn2)CC1 [PCM-0102093] | 0 | 0 | 0 | 0 | 83.3 | 63.9 | 57.5
9 | COc1ccc2c(c1)CCCN2C(=O)CCl [PCM-0102325] | 0 | 0 | 0.12 | 0 | 40.2 | 1.8 | 7.5
10 | O=C(CCl)N1CCN(S(=O)(=O)c2c(F)cccc2F)CC1 [PCM-0102201] | 0 | 0 | 0 | 0 | 57.6 | 11.1 | 9.5
11 | O=C(CCl)Nc1ccc(OC(F)(F)F)cc1 [PCM-0102276] | 0.36 | 0 | 0.24 | 0 | 64.9 | 9.2 | 13.3
12 | Cc1c(Cl)cccc1NC(=O)CCl [PCM-0102130] | 0 | 0 | 0 | 0 | 48.1 | 4.9 | 26
13 | C=CC(=O)N1CCC2(CC1)CNC(=O)C2 [PCM-0102690] | 0 | 0 | 0 | 0 | 107 | 95.1 | 100
14 | CNC(=O)C1CN(C(=O)CCl)c2ccccc2O1 (stereo not drawn) [PCM-0102221] | 0.15 | 0 | 0 | 0 | 58.1 | 53 | 82.1
15 | Cl.O=C(CCl)N1CCN(c2ccccn2)CC1 [PCM-0102213] | 0 | 0 | 0 | 0 | 94.7 | 81.6 | 84.5
16 | O=C(CCl)Nc1nc(-c2ccc(F)c(F)c2)cs1 [PCM-0102244] | 0.29 | 0.15 | 0.53 | 0 | 76.5 | 0.9 | 6.9
17 | C=CC(=O)NCC1CCOCO1 (stereo not drawn) [PCM-0102648] | 0 | 0.2 | 0 | 0 | 104 | 88.8 | 102
18 | CC1(C)C(=O)Nc2ccccc2N1C(=O)CCl [PCM-0102546] | 0.32 | 0 | 0.18 | 0 | 78.5 | 57.2 | 48
19 | CC1CCN(C(=O)CCl)c2ccccc2S1 (stereo not drawn) [PCM-0102216] | 0 | 0 | 0.32 | 0 | 52.4 | 42.4 | 77.3

Continued, in another order:

Row | OTUB2 (OTUB2 (OTUB2A)) | BSA (BSA) | NUDT7 (NUDT7) | PCAF (PCAF) | Structure (SMILES) | viability at 48 h, 10 µM (in vitro [1]) [%] | viability at 48 h, 10 µM (in vitro [2]) [%] | viability at 48 h, 10 µM (in vitro [3]) [%]
20 | 0.41 | 0 | 0 | 0 | O=C(CCl)Nc1ccc2c(c1)OC(F)(F)O2 [PCM-0102738] | 72.2 | 14.2 | 30
21 | 0 | 0 | 0.09 | 0 | CN(Cc1cccc(C(F)(F)F)c1)C(=O)CCl [PCM-0102987] | 45.2 | 6.7 | 5.3
22 | 0 | 0 | 0 | 0 | C=CC(=O)N1CCN(c2nccc3sccc23)CC1 [PCM-0102715] | 92.1 | 78.2 | 97.2
23 | 0.08 | 0 | 0.14 | 0 | N#Cc1ccc(NC(=O)CCl)cc1 [PCM-0102875] | 46 | 4.3 | 36.6
24 | 0.2 | 0 | 0.17 | 0 | O=C(CCl)Nc1ccc(Br)cc1F [PCM-0102926] | 59.9 | 32.5 | 50.9
25 | 0 | 0 | 0.2 | 0.25 | C=CC(=O)N1CCC(N)CC1.Cl [PCM-0102844] | 98.2 | 124 | 109
26 | 0 | 0 | 0 | 0 | COC(=O)c1cccc(NC(=O)CCl)n1 [PCM-0102977] | 101 | 105 | 103
27 | 0 | 0 | 0.3 | 0 | CN(Cc1nc2ccccc2s1)C(=O)CCl [PCM-0102988] | 42.8 | 2.9 | 9.3
28 | 0 | 0 | 0.05 | 0 | C=CC(=O)NCC1CCCCC1 [PCM-0102766] | 114 | 79 | 97.5
29 | 0.17 | 0 | 0.4 | 0 | N#Cc1ccc(Cl)cc1NC(=O)CCl [PCM-0102700] | 68.1 | 64.8 | 57.6
30 | 0.29 | 0 | 0.07 | 0 | COC(=O)c1ccc(Cl)c(NC(=O)CCl)c1 [PCM-0102764] | 39.9 | 5.7 | 16.7
31 | 0 | 0 | 0 | 0 | Cc1sc(NC(=O)CCl)c(C)c1C [PCM-0102968] | 57.3 | 2.3 | 16.1
32 | 0 | 0 | 0.2 | 0 | O=C(CCl)N1CCCC1c1ccsc1 (stereo not drawn) [PCM-0102693] | 37.7 | 4.6 | 11.7
33 | 0 | 0 | 0 | 0 | C=CC(=O)N1CCC(CS(C)(=O)=O)C1 (stereo not drawn) [PCM-0102765] | 101 | 85.1 | 98.4
